Data from US20230399339A1, “HETEROCYCLIC AMIDE DERIVATIVE, PREPARATION METHOD THEREFOR, AND APPLICATION THEREOF” (SHENZHEN ZHONGGE BIOLOGICAL TECHNOLOGY CO., LTD., priority 2021, published 2023).

Target: T1, EP4 receptor (Homo sapiens, UniProt P35408)
T1 construct: expressed in transfected cells; host or cells: Flpin-CHO-EP4 cells (Flp-In CHO host, Chinese hamster ovary)
Test: Antagonist activity against EP4 receptor by cAMP assay
Assay type: cell-based
Settings: Flpin-CHO-EP4 cells, PGE2-stimulated cAMP; initial concentration 50 nM, dilution times 4
Procedure: (a) Antagonist Activity Against EP4 Receptor by cAMP Assay:
Experiment Methods: Inoculating Flpin-CHO-EP4 cells (8000 cells/well) into a 384-well plate (6007680-50, PE) with an assay buffer (1×HBSS+20 mM HEPES+0.1% BSA+500 μM IBMX). Preparing 8× compound working solution with the assay buffer. Adding 2.5 μL of the 8× compound working solution to each well in the cell plate according to the plate map and incubating at 37° C. for 10 min. Preparing 8×PGE2 (400 nM) with the assay buffer. Adding 2.5 μL of the 8×PGE2 per well in the cell plate and incubating at 37° C. for 30 min. Diluting the Eu-cAMP tracer (1/50) with a lysis buffer and adding 10 μL per well in the test plate. Diluting Ulight-anti-cAMP (1/150) with a lysis buffer and adding 10 μL per well in the test plate. Incubating at room temperature for 1 h. Reading wavelength signal values at 665 nm and 615 nm on the Envision 2105 plate reader.

T1 sequence (P35408 whole entry): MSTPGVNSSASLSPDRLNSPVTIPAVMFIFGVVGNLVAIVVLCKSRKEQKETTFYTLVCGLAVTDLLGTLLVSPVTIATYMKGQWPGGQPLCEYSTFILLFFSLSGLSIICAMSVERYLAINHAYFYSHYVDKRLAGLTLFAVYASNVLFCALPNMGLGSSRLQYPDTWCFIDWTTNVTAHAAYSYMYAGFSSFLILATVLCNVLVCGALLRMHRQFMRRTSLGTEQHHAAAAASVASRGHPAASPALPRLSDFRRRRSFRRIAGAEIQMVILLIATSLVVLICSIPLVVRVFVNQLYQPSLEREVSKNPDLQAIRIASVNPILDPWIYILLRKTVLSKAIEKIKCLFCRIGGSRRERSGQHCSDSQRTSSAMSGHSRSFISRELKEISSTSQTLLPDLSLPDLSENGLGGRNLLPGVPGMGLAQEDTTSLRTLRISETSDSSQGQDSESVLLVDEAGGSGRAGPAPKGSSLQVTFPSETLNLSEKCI

Row | IC50 [nM] | Compound
1 | 0.351 | Cc1sc2ccn(Cc3ccc(C(F)(F)F)cc3)c2c1C(=O)NC1(c2ccc(C(=O)O)cc2)CC1 [Control compound]
2 | 0.122 | Cc1sc2ccn(Cc3ccc(S(F)(F)(F)(F)F)cc3)c2c1C(=O)NC1(c2ccc(C(=O)O)cc2)CC1 [Example 1, 4-(1-{[2-methyl-4-(4-(pentafluorothio)benzyl)-4H-thieno[3,2-b]pyrrole-3-carbonyl]amino}-cyclopropyl)carboxylic acid]
